What all share (experiment): NCI anticancer screen, dose series, 48 h
Test [1] concerns LXFL 529 NSCLC.
In test [2] the test system is DMS 114 small cell lung.
The test system of test [3] is RXF-631 renal.
Test [4] relates to DMS 273 small cell lung.
For test [5], the system named is XF 498 CNS.
Test [6] concerns HOP-18 NSCLC.
Test [7] concerns M19-MEL melanoma.
For test [8], the system named is SNB-78 CNS.
In test [9] the test system is MDA-N.

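Step 1: Grow cells in 96-well plates. Step 2: Expose to compound for 48 hours at 5 concentrations. Step 3: Interpolate endpoints linearly; if unreached, use highest concentration. Here, GI50 denotes the concentration required for 50% inhibition of growth. TGI marks complete inhibition of growth.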 Where only a bound is given, the exact number is not on record here.

Take `O=C1N[C@@H](O)[C@@H]2ON=C(c3ccccc3)[C@H]12`: the TGI in test [1], in [2], in test [3], in test [4], in test [5] and in [6] was above 100 µM in each case. In test [7], this compound had a TGI above 100 µM.

Consider `CN1CCN(C)C1c1cccc(C2N(C)CCN2C)c1`, for which the TGI in test [1], in test [2], in test [8], in [3], in [4] and in test [7] was above 100 µM each time.

Turning to `O=C1c2ccccc2-c2cccc3ccc(Cc4ccccc4)c1c23`, the TGI in test [1], in [2], in test [8], in test [3], in test [4] and in [5] was above 100 µM throughout. For the same compound, the TGI in [7] is above 100 µM.

For `CC(=O)[CH-]C(C)=O.CC(=O)[CH-]C(C)=O.N=CC=N.[Sn+2]`, the GI50 in test [1] is 1.32 µM; in test [2], 2.32 µM; in [9], 1.68 µM; in test [4], 2.91 µM; in test [5], 6.49 µM; in test [6] it was 11.5 µM. Moreover, the TGI in test [1] is 2.6 µM; in test [2], 5.17 µM; in [9], 3.69 µM; in test [4] it was 8.57 µM; in [5], 16.5 µM; in test [6], 23.7 µM.

Regarding `O=c1c2ccccc2c2c3c1cccc3c1cccc3c(=O)c4ccccc4c2c31`, the TGI in test [1], in test [2], in test [8], in [3], in test [4] and in test [6] was above 100 µM each time. Further, the TGI in [7] was above 100 µM.

Consider `c1ccc2c(c1)N=C(c1cccc3ccccc13)CC(c1cccc3ccccc13)S2` (stereo not given), for which the TGI was 11.4 µM in [1]; 9.96 µM in [2]; 33.4 µM in test [8]; above 44.7 µM in test [4]; 22.1 µM in [5]; 13.8 µM in test [6]. Further, in test [7], the TGI was determined as 20.3 µM.

As to `CC(=O)c1c(C)n([O-])c2cc(C)c(C)cc2[n+]1=O`, the TGI in test [1], in [2], in test [8], in test [3], in [4] and in test [5] was above 100 µM each time. Further, the TGI in test [6] and in [7] was above 100 µM in each case.

Turning to `N#Cc1c(N)c(C(=O)O)nn(-c2cccc(C(F)(F)F)c2)c1=O`, the TGI in test [1], in test [8], in [3], in [5], in test [6] and in test [7] was above 100 µM throughout.

With `O=C(Nc1ccc(S(=O)(=O)N[C@@H](C(=O)O)c2ccccc2)cc1)c1ccc(F)cc1`, the TGI in test [1], in [4], in test [5], in test [6] and in test [7] was above 100 µM throughout.

Take `COc1cc(/C=C\c2ccc(O)cc2)cc(OC)c1OC`: the TGI is above 100 µM in [1]; 8.3 µM in test [8]; 2.9 µM in test [4]; above 100 µM in test [5]; above 100 µM in test [6]; above 100 µM in test [7].

As for `NC1=NC(=O)C(CC(=O)Nc2ccc([N+](=O)[O-])cc2[N+](=O)[O-])S1` (stereo not given), the TGI in test [1], in test [2], in test [8], in test [3], in test [5] and in test [6] was above 100 µM in each case. The TGI in [7] is above 100 µM.

Take `CC(=O)OCCOCBr`: the TGI in test [1], in test [2], in [3], in [4], in [5] and in test [6] was above 100 µM in each case. The TGI in [7] was above 100 µM.

Take `CC1=Nc2c(ccc3c2C(=O)c2ccccc2C3=O)NC(c2ccncc2)C1` (stereo not given): the GI50 in [1], in test [8], in test [4], in [6] and in test [7] was above 100 µM each time. Besides, the TGI in [1], in test [2], in test [8], in test [3], in test [4] and in test [5] was above 100 µM throughout. Further, the TGI in test [6] and in [7] was above 100 µM in each case.

On to `COc1ccc(C(=O)C(C(=O)CCC(=O)Nc2cccc(C(F)(F)F)c2)c2ccccc2)cc1` (stereo not given), for which the TGI in [1], in test [2], in [8], in test [4], in test [5] and in [6] was above 100 µM each time. In [7], this compound yielded a TGI above 100 µM.

(Values after PubChem BioAssay (NCI).)
